Measurements as given in paper PMC12349723, “Computationally accelerated identification of P-glycoprotein inhibitors” (PLOS One, 2025).
Where “and” joins values, the source holds several entries; their conditions need not be identical. Equal entries are not always repeated.

These compounds were tested against T1, P-gp (Homo sapiens, UniProt P08183) (assay: LC-MS/MS intracellular accumulation assay with or without tariquidar (P-gp transport substrate test) in DU145-TXR cells). Conditions: DU145-TXR, 5 µM compound, 2.5 h, with 500 nM tariquidar; mean ± SD, triplicate.
T1 construct: The MDR, P-gp overexpressing DU145-TXR cells were maintained under positive selection pressure; endogenous in cells; host or cells: DU145-TXR (paclitaxel-resistant sub-line of DU145 human prostate cancer cells)
T1 sequence (P08183 whole entry): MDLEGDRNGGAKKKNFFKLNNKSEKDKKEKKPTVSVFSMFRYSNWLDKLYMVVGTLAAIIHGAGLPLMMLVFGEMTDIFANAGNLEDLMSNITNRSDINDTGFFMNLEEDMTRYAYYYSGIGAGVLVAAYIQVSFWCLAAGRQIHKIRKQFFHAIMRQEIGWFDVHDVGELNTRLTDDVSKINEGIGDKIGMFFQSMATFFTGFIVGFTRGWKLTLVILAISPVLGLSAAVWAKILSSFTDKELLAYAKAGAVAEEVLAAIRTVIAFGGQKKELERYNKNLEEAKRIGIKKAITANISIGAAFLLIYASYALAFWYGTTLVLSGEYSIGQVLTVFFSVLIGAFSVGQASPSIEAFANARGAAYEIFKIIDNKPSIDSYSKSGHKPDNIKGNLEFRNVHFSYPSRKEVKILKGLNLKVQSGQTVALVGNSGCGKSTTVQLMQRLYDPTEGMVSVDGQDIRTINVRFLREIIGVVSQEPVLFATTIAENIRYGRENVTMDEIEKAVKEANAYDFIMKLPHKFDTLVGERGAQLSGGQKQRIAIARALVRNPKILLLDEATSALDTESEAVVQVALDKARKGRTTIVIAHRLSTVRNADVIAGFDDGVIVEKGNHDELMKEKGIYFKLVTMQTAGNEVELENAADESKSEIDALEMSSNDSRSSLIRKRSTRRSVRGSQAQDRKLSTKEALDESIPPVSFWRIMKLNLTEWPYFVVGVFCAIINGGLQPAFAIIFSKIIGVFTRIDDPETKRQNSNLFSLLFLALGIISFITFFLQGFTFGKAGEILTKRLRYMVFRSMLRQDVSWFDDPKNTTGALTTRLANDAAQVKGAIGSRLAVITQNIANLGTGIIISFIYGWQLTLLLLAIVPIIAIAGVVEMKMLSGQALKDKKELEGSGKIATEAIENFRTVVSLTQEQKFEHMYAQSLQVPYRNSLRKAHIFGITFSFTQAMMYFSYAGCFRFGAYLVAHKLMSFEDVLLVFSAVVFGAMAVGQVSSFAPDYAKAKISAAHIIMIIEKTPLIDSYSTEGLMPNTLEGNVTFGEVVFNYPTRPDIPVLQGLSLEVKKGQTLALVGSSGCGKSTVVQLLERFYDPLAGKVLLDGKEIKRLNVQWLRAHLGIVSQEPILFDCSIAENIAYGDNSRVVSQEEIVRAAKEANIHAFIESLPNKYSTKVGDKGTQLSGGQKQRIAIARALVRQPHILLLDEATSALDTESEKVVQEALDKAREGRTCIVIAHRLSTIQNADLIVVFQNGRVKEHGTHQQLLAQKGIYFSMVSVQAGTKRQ
Assay type: in vitro ADME
Procedure: DU145-TXR cells were seeded at 350,000 cells per well in 6-well plates in complete RPMI medium. […] A full sample of DAU was also prepared for quantitative analysis. […] Media was removed with a glass vacuum aspirator. Cells were re-suspended and washed in 2mL of ice-cold Hank’s Balanced Salt Solution (HBSS, Gibco), and spun again at 2400 rpm. Cell lysates were diluted in 600 µL of ice-cold HBSS, flash-frozen in liquid nitrogen, and stored at −80 °C until analysis. LC-MS/MS intracellular accumulation assays were performed in collaboration with the Pharmacology Core at the University of Texas Southwestern Medical Center (UTSW). […] This method allowed us to quantify the change – if any – in the relative amount of compound present in the samples when TQR was added. An increase in the relative amount of compound indicates enhanced intracellular retention that compound. […] The “Internal Standard” (IS) is a known substance added in a constant amount to each sample. The “Peak Area”, expressed as “counts”, describes the number of MS/MS spectra from the experimental compound and serves as a measure of its relative abundance. […] These values allow a comparison of the relative abundance of compound between the “- TQR” and “+ TQR” samples, and to test for statistically significant differences. LC-MS/MS quantification was performed as follows. Cell lysate was aliquoted into Eppendorf tubes. In contrast to [9], blank cell lysates were not spiked with varying concentrations of each compound to create a standard curve, since compound amounts were normalized to abundance of the internal standard. […] The supernatant was then transferred to an HPCL vial, and subsequently analyzed using LC-MS/MS using a Sciex 4000QTRAP mass spectrometer coupled to a Shimadzu Prominence LC. […] The column flow rate was 1.5 ml/min using an Agilent C18 XDB, 5 micron packing 50 × 4.6 mm column. […] A BSA standard curve was then prepared in water and mixed using the same ratio. […] The ratio of Analyte to Internal Standard was normalized to the lysate content for each individual sample. […] Statistical significance was determined using a Student’s T Test in GraphPad Prism. We aimed to identify P-gp inhibitors that are not transport substrates of the pump itself. […] To test these predictions in vitro, liquid chromatography with tandem mass spectrometry (LC-MS/MS) was used to assess the intracellular accumulation of experimental compounds as described in [9]. […] The relative intracellular accumulation of each experimental compound was then assessed using LC-MS/MS. […] The P-gp substrate and chemotherapeutic daunorubicin (DAU) was used as a positive control for P-gp-mediated transport.

Compound	Intracellular accumulation (normalized ratio of compound to internal standard), Trial 1, + TQR	Intracellular accumulation (normalized ratio of compound to internal standard), Trial 2, + TQR
Nc1nonc1-n1nnc(C(=O)N/N=C/c2c3ccccc3cc3ccccc23)c1COc1ccc(F)cc1 [Compound 60, Nc1nonc1-n1nnc(C(=O)N\N=C\c2c3ccccc3cc3ccccc23)c1COc1ccc(F)cc1]	0.282 ± 0.010	0.250 ± 0.003
COc1ccc(OC)c(NC(=O)c2nnn(-c3ccc4noc(-c5ccccc5)c4c3)c2C)c1 [Compound 71, COc1ccc(OC)c(NC(=O)c2nnn(c2C)-c2ccc3noc(-c4ccccc4)c3c2)c1]	0.067 ± 0.005	0.091 ± 0.043

Same assay, conditions: DU145-TXR, 5 µM compound, 2.5 h, without tariquidar; mean ± SD, triplicate

Compound	Intracellular accumulation (normalized ratio of compound to internal standard), Trial 1, - TQR	Intracellular accumulation (normalized ratio of compound to internal standard), Trial 2, - TQR
Nc1nonc1-n1nnc(C(=O)N/N=C/c2c3ccccc3cc3ccccc23)c1COc1ccc(F)cc1 [Compound 60, Nc1nonc1-n1nnc(C(=O)N\N=C\c2c3ccccc3cc3ccccc23)c1COc1ccc(F)cc1]	0.231 ± 0.165	0.250 ± 0.003
COc1ccc(OC)c(NC(=O)c2nnn(-c3ccc4noc(-c5ccccc5)c4c3)c2C)c1 [Compound 71, COc1ccc(OC)c(NC(=O)c2nnn(c2C)-c2ccc3noc(-c4ccccc4)c3c2)c1]	0.085 ± 0.013	0.071 ± 0.009

Same assay, conditions: Student's T test of the mean

Compound	P (- TQR vs + TQR), Trial 1	P (- TQR vs + TQR), Trial 2
Nc1nonc1-n1nnc(C(=O)N/N=C/c2c3ccccc3cc3ccccc23)c1COc1ccc(F)cc1 [Compound 60, Nc1nonc1-n1nnc(C(=O)N\N=C\c2c3ccccc3cc3ccccc23)c1COc1ccc(F)cc1]	0.6	> 1
COc1ccc(OC)c(NC(=O)c2nnn(-c3ccc4noc(-c5ccccc5)c4c3)c2C)c1 [Compound 71, COc1ccc(OC)c(NC(=O)c2nnn(c2C)-c2ccc3noc(-c4ccccc4)c3c2)c1]	0.09	0.5

These compounds were tested on DU145 cells (assay: MTT viability assay, non-P-gp overexpressing DU145 parental line, with or without PTX). Conditions: DU145 cells, 48 h, mean of 8 samples.
Assay type: cell-based, human
Procedure: The chemotherapeutic sensitive DU145 human prostate cancer cells and the multidrug resistant sub-line, DU145-TXR, were generous gifts from Dr. Evan Keller (University of Michigan, Ann Arbor, MI). The MDR, P-gp overexpressing DU145-TXR cells were maintained under positive selection pressure by supplementing complete medium with 10 nM paclitaxel (Acros Organics, NJ). […] The MDR, P-gp overexpressing A2780-ADR cell line was maintained under positive selection pressure by supplementing complete medium with 100 nM doxorubicin (Fisher Scientific, NJ). The non-cancerous HFL1 (human lung fibroblast) cell line cell line was a generous gift from Dr. Robert Harrod (Southern Methodist University, Dallas, TX) and was maintained in complete F12K media consisting of F12K with 10% fetal bovine serum, 100 U/mL penicillin, and 100 µg/mL streptomycin (Gibco). Flasks and 96 well plates that were used with the non-cancerous line HFL1 were pre-treated with 0.1 mg/ml Collagen Type 1 (Gibco) and rinsed with PBS (Fisher).
Culture of the DU145, DU145-TXR, and HFL1 cell lines was performed as described in [8]. Culture of the A2780 and A2780-ADR cell lines was performed as described in [9]. MTT assays were performed as described in [8] with minor modifications. […] Data represent the mean of two separate experiments, with n = 3 samples per experiment (n = 6 total) (S4 Table).
MTT assays measure the reduction of yellow, water soluble 3-(4,5-dimethylthiazol-2-yl)-2,5-diphenyltetrazolium bromide (MTT) to blue, insoluble formazan crystals by cellular reductase processes in living cells. Cells were trypsinized from monolayers and seeded in complete medium in 96 well plates. Cancerous cell lines (DU145, DU145-TXR, A2780, A2780-ADR) were seeded at 3,000 cells per well in complete RPMI medium. The non-cancerous HFL1 line was seeded at 4,000 cells per well in complete F12K medium, in collagen-treated plates (Collagen Type 1, Gibco). Cells were incubated with experimental compounds for 48 hours at 37 °C and 5% CO2 in a humidified incubator. At 48 hours, MTT was added (20 µL/well of 5 mg/mL MTT in PBS) to each well. After incubation for 4 hours, the media was removed, and the formazan crystals were dissolved in 100 µL DMSO per well. Plates containing the semi-adherent A2780 or A2780-ADR lines were spun at 1400 rpm for 3 minutes prior to aspiration of media, and the addition of DMSO. Plates were shaken for 10 minutes at 500 rpm on an Orbital shaker (LabDoctor from MidSci, St Louis, MO). The absorbance was measured at 570 nm using a Bio-Tek Cytation 5 (Bio-Tek, Winooski, VT). The measured absorbance value was correlated with the number of metabolically active cells in that well, corrected for absorbance of media. The percent of cell viability (termed ‘survival’ here) was calculated as a percentage of survival of the control condition, which refers to vehicle-treated (DMSO as vehicle) cells, or vehicle-and-chemotherapeutic-treated cells, if testing a compound’s ability to re-sensitize cells to a chemotherapeutic. Percent survival was calculated using the following equation:
% Survival=100 × absorbance of experimental cells/mean absorbance of control treated cells
For DU145-TXR, DU145, HFL1 and A2780 cells – data are the mean ± one standard deviation, 8 samples per compound, from at least two independent trials per compound. […] For A2780-ADR cells, data are the mean ± one standard deviation with 12 samples per compound, from at least two independent trials per compound.
67 compounds were chosen from computational screens for testing in vitro. A) DU145-TXR cells were exposed to 15 µM experimental compound with or without 500 nM of the P-gp substrate and chemotherapeutic paclitaxel (PTX).

Compound	% Survival, Mean, 15 µM Compound alone [%]	% Survival, Mean, 15 µM compound + 500 nM PTX [%]
COc1ccc2c3c([nH]c2c1)[C@H](CC(C)C)N1C(=O)[C@H](CCC(=O)OC(C)(C)C)NC(=O)[C@@H]1C3 [Ko143, reference compound]	68.1	20.1
COc1cc2c(cc1OC)CN(CCc1ccc(NC(=O)c3cc(OC)c(OC)cc3NC(=O)c3cnc4ccccc4c3)cc1)CC2 [Tariquidar, reference compound]		12.0

Same assay, conditions: DU145 cells, 48 h, single samples, 2 trials x 4 samples

Compound	% Survival, 15 µM Compound alone (individual samples)	% Survival, 15 µM compound + 500 nM PTX (individual samples)
COc1ccc2c3c([nH]c2c1)[C@H](CC(C)C)N1C(=O)[C@H](CCC(=O)OC(C)(C)C)NC(=O)[C@@H]1C3 [Ko143, reference compound]	89% and 88% and 53% and 50% and 46% and 42% and 86% and 91%	12% and 13% and 16% and 22% and 23% and 24% and 25%

Same assay, conditions: Homo sapiens, DU-145, 48 h, DU145 cells, 48 h, mean of 8 samples, read-out: % Survival, Mean, 15 µM Compound alone

Compound	viability at 15 µM [%]
COc1cc2c(cc1OC)CN(CCc1ccc(NC(=O)c3cc(OC)c(OC)cc3NC(=O)c3cnc4ccccc4c3)cc1)CC2 [Tariquidar, reference compound]	86.1
